Test results reported in patent US11298363B2, “Triazolobenzazepines as vasopressin V1a receptor antagonists” (RICHTER GEDEON NYRT., priority 2017, dated 2022).

How the values were obtained:
[1] = target: T1, human vasopressin V1a receptor (Homo sapiens, UniProt P37288); experiment: Human vasopressin V1a receptor binding assay; conditions: 1321N1 cell membranes, [3H]vasopressin; read-out: Ki (nM) on hV1a cell line
Method in brief: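 Ki values come from IC50 via Cheng-Prusoff (KD from prior Scatchard), averaged over at least two independent runs. Human V1a membranes were incubated with radioligand 60 minutes at 27° C., bound ligand collected by filtration; (Arg^8)-vasopressin at 1.2×10^−6 M defined non-specific binding.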

[2] = target: T1, human vasopressin V1a receptor; experiment: Functional assay on human vasopressin V1a receptor expressing cell line (intracellular Ca2+ fluorescence); type: cell-based; conditions: 1321N1 cells, (Arg8)-vasopressin at EC80; read-out: IC50 (nM) on hV1a cell line

T1 sequence (P37288 whole entry): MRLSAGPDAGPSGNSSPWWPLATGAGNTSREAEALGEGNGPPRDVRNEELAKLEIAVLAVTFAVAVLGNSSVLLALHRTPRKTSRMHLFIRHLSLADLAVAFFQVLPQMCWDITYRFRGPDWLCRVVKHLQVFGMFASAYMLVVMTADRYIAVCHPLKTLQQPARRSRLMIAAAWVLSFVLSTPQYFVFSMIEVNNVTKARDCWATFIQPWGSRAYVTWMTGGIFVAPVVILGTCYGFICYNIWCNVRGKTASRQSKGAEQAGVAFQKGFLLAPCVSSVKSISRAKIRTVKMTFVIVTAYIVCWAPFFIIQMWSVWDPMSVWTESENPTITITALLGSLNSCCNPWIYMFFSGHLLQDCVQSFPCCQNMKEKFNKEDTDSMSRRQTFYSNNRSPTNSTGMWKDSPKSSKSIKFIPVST

Compound	Ki [1] [nM]	IC50 [2] [nM]
Clc1ccc2c(c1)C[C@@H](N1CCCC1)Cc1nnc([C@H]3CC[C@H](Oc4ccccn4)CC3)n1-2 [Example 174, (5R)-8-chloro-1-[trans-4-pyridin-2-loxcyclohexyl]-5-(pyrrolidin-1-yl)-5,6-dihydro-4H-[1,2,4]triazolo[4,3-a][1]benzazepine]	0.7	3
CN(C)CCC(=O)N[C@@H]1Cc2cc(Cl)ccc2-n2c(nnc2[C@H]2CC[C@H](Oc3ccccn3)CC2)C1 [Example 179, N-{(5R)-8-chloro-1-[trans-4-(pyridin-2-yloxy)cyclohexyl]-5,6-dihydro-4H-[1,2,4]triazolo[4,3-a][1]benzazepin-5-yl}-N^3,N^3-dimethyl-β-alaninamide]	0.2	1.4
O=C(N[C@@H]1Cc2cc(Cl)ccc2-n2c(nnc2[C@H]2CC[C@H](Oc3ccccn3)CC2)C1)C1CCOCC1 [Example 180, N-{(5R)-8-chloro-1-[trans-4-(pyridin-2-yloxy)cyclohexyl]-5,6-dihydro-4H-[1,2,4]triazolo[4,3-a][1]benzazepin-5-yl}tetrahydro-2H-pyran-4-carboxamide]	1.1	4.1
N#CCC(=O)N[C@@H]1Cc2cc(Cl)ccc2-n2c(nnc2[C@H]2CC[C@H](Oc3ccccn3)CC2)C1 [Example 186, N-(5R)-8-chloro-1-[trans-4-(pyridin-2-yloxy)cyclohexyl]-5,6-dihydro-4H-[1,2,4]triazolo[4,3-a][1]benzazepin-5-yl-2-cyanoacetamide]	0.4	1.2
Clc1ccc2c(c1)CC1(Cc3nnc(C4CCN([C@@H]5CCOC5)CC4)n3-2)OCCO1 [Example 188, 8′-chloro-1′-{1-[(3R)tetrahydrofuran-3-yl]piperidin-4-yl}-4′H,6′H-spiro[1,3-dioxolane-2,5′-[1,2,4]triazolo[4,3-a][1]benzazepine]]	0.5	5.3
CN(C)[C@H]1CC[C@H](c2nnc3n2-c2ccc(Cl)cc2CC2(C3)OCCO2)CC1 [Example 190, Trans-4-(8′-chloro-4′H,6′H-spiro[1,3-dioxolane-2,5′-[1,2,4]triazolo[4,3-a][1]benzazepin]-1′-yl)-N,N-dimethylcyclohexanamine]	5.3	105
Clc1ccc2c(c1)CC1(Cc3nnc([C@H]4CC[C@H](Nc5ccccn5)CC4)n3-2)OCCO1 [Example 193, N-[trans-4-(8′-chloro-4′H,6′H-spiro[1,3-dioxolane-2,5′-[1,2,4]triazolo[4,3-a][1]benzazepin]-1′-yl)cyclohexyl]pyridin-2-amine]	0.1	0.9
CN(C)CCN[C@@H]1Cc2cc(Cl)ccc2-n2c(nnc2[C@H]2CC[C@H](Oc3ccccn3)CC2)C1 [Example 194, N′-{(5R)-8-chloro-1-[trans-4-(pyridin-2-yloxy)cyclohexyl]-5,6-dihydro-4H-[1,2,4]triazolo[4,3-a][1]benzazepin-5-yl}-N,N-dimethylethane-1,2-diamine]	1.1	22
OCCN[C@@H]1Cc2cc(Cl)ccc2-n2c(nnc2[C@H]2CC[C@H](Oc3ccccn3)CC2)C1 [Example 196, 2-({(5R)-8-chloro-1-[trans-4-(pyridin-2-yloxy)cyclohexyl]-5,6-dihydro-4H-[1,2,4]triazolo[4,3-a][1]benzazepin-5-yl}amino)ethanol]	0.5	2.7
Clc1ccc2c(c1)C[C@H](NCC1CC1)Cc1nnc([C@H]3CC[C@H](Oc4ccccn4)CC3)n1-2 [Example 199]	2.2	23
CN1CCC(C(=O)N[C@H]2Cc3cc(Cl)ccc3-n3c(nnc3[C@H]3CC[C@H](Oc4ccccn4)CC3)C2)CC1 [Example 200]	114	1190
O=C(N[C@H]1Cc2cc(Cl)ccc2-n2c(nnc2[C@H]2CC[C@H](Oc3ccccn3)CC2)C1)C(F)(F)F [Example 201]	3.9	19
COCCOC1Cc2cc(Cl)ccc2-n2c(nnc2[C@H]2CC[C@H](Oc3ccccn3)CC2)C1 (stereo partly drawn) [Example 202, 8-chloro-5-(2-methoxyethoxy)-1-[trans-4-(pyridin-2-yloxy)cyclohexyl]-5,6-dihydro-4H-[1,2,4]triazolo[4,3-a][1]benzazepine]	0.4	1
FC1Cc2cc(Cl)ccc2-n2c(nnc2[C@H]2CC[C@H](Oc3ccccn3)CC2)C1 (stereo partly drawn) [Example 206, 8-chloro-5-fluoro-1-[trans-4-(pyridin-2-yloxy)cyclohexyl]-5,6-dihydro-4H-[1,2,4]triazolo[4,3-a][1]benzazepine]	0.2	0.9
CS(=O)(=O)CCOC1Cc2cc(Cl)ccc2-n2c(nnc2[C@H]2CC[C@H](Oc3ccccn3)CC2)C1 (stereo partly drawn) [Example 207, 8-chloro-5-[2-(methylsulfonyl)ethoxy]-1-[trans-4-(pyridin-2-yloxy)cyclohexyl]-5,6-dihydro-4H-[1,2,4]triazolo[4,3-a][1]benzazepine]	0.3	4.2
O/N=C1/Cc2cc(Cl)ccc2-n2c(nnc2[C@H]2CC[C@H](Oc3ccccn3)CC2)C1 [Example 208, 8-chloro-N-hydroxy-1-[trans-4-(pyridin-2-yloxy)cyclohexyl]-4H-[1,2,4]triazolo[4,3-a][1]benzazepin-5(6H)-imine]	0.1	2.2
C#CCN(C)[C@H]1Cc2cc(Cl)ccc2-n2c(nnc2[C@H]2CC[C@H](Oc3ccccn3)CC2)C1 [Example 209, (5S)-8-chloro-N-methyl-N-(prop-2-yn-1-yl)-1-[trans-4-(pyridin-2-yloxy)cyclohexyl]-5,6-dihydro-4H-[1,2,4]triazolo[4,3-a][1]benzazepin-5-amine]	0.2	1.6

The next lines start with the values.

Ki [1] [nM]	IC50 [2] [nM]	Compound
50.5	323	COC1Cc2cc(Cl)ccc2-n2c(nnc2C2CCN([C@H]3CCOC3)CC2)C1 (stereo partly drawn) [Example 175, 8-chloro-5-methoxy-1-{1-[(3S)-tetrahydrofuran-3-yl]piperidin-4-yl}-5,6-dihydro-4H-[1,2,4]triazolo[4,3-a][1]benzazepine]
3.9	19	COC1Cc2cc(Cl)ccc2-n2c(nnc2C2CCN([C@@H]3CCOC3)CC2)C1 (stereo partly drawn) [Example 178, 8-chloro-5-methoxy-1-{1-[(3R)-tetrahydrofuran-3-yl]piperidin-4-yl}-5,6-dihydro-4H-[1,2,4]triazolo[4,3-a][1]benzazepine]
0.5	1.8	OC1Cc2cc(Cl)ccc2-n2c(nnc2N2CCC(Oc3ccccn3)CC2)C1 (stereo not drawn) [Example 181, 8-chloro-1-[4-(pyridin-2-yloxy)piperidin-1-yl]-5,6-dihydro-4H-[1,2,4]triazolo[4,3-a][1]benzazepin-5-ol]
19	416	COC1Cc2cc(Cl)ccc2-n2c(nnc2[C@H]2CC[C@H](N3CCN(C)CC3)CC2)C1 (stereo partly drawn) [Example 182, 8-chloro-5-methoxy-1-[trans-4-(4-methylpiperazin-1-yl)cyclohexyl]-5,6-dihydro-4H-[1,2,4]triazolo[4,3-a][1]benzazepine]
102	2120	COC1Cc2cc(Cl)ccc2-n2c(nnc2[C@H]2CC[C@@H](N3CCN(C)CC3)CC2)C1 (stereo partly drawn) [Example 183, 8-chloro-5-methoxy-1-[cis-4-(4-methylpiperazin-1-yl)cyclohexyl]-5,6-dihydro-4H-[1,2,4]triazolo[4,3-a][1]benzazepine]
0.6	25	COC1Cc2cc(Cl)ccc2-n2c(nnc2C2CCN(Cc3cccnc3)C2)C1 (stereo not drawn) [Example 184, 8-chloro-5-methoxy-1-[1-(pyridin-3-ylmethyl)pyrrolidin-3-yl]-5,6-dihydro-4H-[1,2,4]triazolo[4,3-a][1]benzazepine]
4.1	19	COC1Cc2cc(Cl)ccc2-n2c(nnc2C2CCN(Cc3ccccn3)C2)C1 (stereo not drawn) [Example 185, 8-chloro-5-methoxy-1-[1-(pyridin-2-ylmethyl)pyrrolidin-3-yl]-5,6-dihydro-4H-[1,2,4]triazolo[4,3-a][1]benzazepine]
86	4750	COC1Cc2cc(Cl)ccc2-n2c(nnc2C2CCN(C(=O)c3cccnc3)C2)C1 (stereo not drawn) [Example 187, [3-(8-chloro-5-methoxy-5,6-dihydro-4H-[1,2,4]triazolo[4,3-a][1]benzazepin-1-yl)pyrrolidin-1-yl](pyridin-3-yl)methanone]
10	229	COC1Cc2cc(Cl)ccc2-n2c(nnc2C2CCN(C(=O)c3ccccn3)C2)C1 (stereo not drawn) [Example 189, [3-(8-chloro-5-methoxy-5,6-dihydro-4H-[1,2,4]triazolo[4,3-a][1]benzazepin-1-yl)pyrrolidin-1-yl](pyridin-2-yl)methanone]
0.3	2.9	COC1Cc2cc(Cl)ccc2-n2c(nnc2N2CCC3(CC2)OCc2ccccc23)C1 (stereo not drawn) [Example 191, 8-chloro-5-methoxy-1-(1′H,3H-spiro[2-benzofuran-1,4′-piperidin]-1′-yl)-5,6-dihydro-4H-[1,2,4]triazolo[4,3-a][1]benzazepine]
0.8	6.3	COC1Cc2cc(Cl)ccc2-n2c(nnc2N2CCN(c3ncccc3Cl)CC2)C1 (stereo not drawn) [Example 192, 8-chloro-1-[4-(3-chloropyridin-2-yl)piperazin-1-yl]-5-methoxy-5,6-dihydro-4H-[1,2,4]triazolo[4,3-a][1]benzazepine]
0.3	1.6	CC(=O)OC1Cc2cc(Cl)ccc2-n2c(nnc2[C@H]2CC[C@H](Oc3ccccn3)CC2)C1 (stereo partly drawn) [Example 195, 8-chloro-1-[trans-4-(pyridin-2-yloxy)cyclohexyl]-5,6-dihydro-4H-[1,2,4]triazolo[4,3-a][1]benzazepin-5-yl acetate]
0.3	4.1	COC1Cc2cc(Cl)ccc2-n2c(nnc2N2CCC(Oc3ccccn3)CC2)C1 (stereo not drawn) [Example 197, 8-chloro-5-methoxy-1-[4-(pyridin-2-yloxy)piperidin-1-yl]-5,6-dihydro-4H-[1,2,4]triazolo[4,3a][1]benzazepine]
